From patent publication US8471004B2, “Bicyclic compounds” (Hoffman-La Roche Inc., priority 2009, dated 2013)

What follows are compounds tested against T1, human chemokine receptor 2 isoform B (Homo sapiens, UniProt P41597) (assay: Calcium mobilization assay (CHOK1-CCR2B-A5 cells, FLIPR, MCP-1 stimulated)). Settings: Ca mobilisation assay for CCR2, antagonist activity, 50% inhibition of specific calcium increases after 20 nM MCP-1.
T1 construct: host or cells: CHOK1-CCR2B-A5 (CHO-K1)
T1 sequence (P41597 1-360 isoform P41597-2): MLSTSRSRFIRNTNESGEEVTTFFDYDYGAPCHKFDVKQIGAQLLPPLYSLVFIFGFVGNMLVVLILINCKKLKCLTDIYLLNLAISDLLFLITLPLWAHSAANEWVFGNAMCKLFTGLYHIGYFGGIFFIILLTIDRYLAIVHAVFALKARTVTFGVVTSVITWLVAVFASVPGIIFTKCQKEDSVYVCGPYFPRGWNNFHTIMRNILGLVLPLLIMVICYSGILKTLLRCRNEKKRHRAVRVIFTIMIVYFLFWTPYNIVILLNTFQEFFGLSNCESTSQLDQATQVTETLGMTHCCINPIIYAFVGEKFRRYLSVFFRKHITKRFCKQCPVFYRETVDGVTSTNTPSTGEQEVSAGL
Type: cell-based
Method: CHOK1-CCR2B-A5 cells (from Euroscreen) stably overexpressing the human chemokine receptor 2 isoform B were cultured in Nutrient Hams F12 medium supplemented with 5% FBS, 100 U/ml penicillin, 100 μg/ml streptomycin, 400 μg/ml G418 and 5 μg/ml puromycin.
For the assay cells were grown overnight in 384-well black clear flat bottom polystyrene plates (Costar) at 37° C. at 5% CO2. After washing with DMEM, 20 mM Hepes, 2.5 mM probenecid, 0.1% BSA (DMEM assay buffer) cells were loaded with 4 μM Fluo-4 in the same DMEM assay buffer for 2 hours at 30° C. Excess dye was removed and cells were washed with DMEM assay buffer. 384-well compound plates were prepared with DMEM assay buffer/0.5% DMSO with or without various concentrations of test compounds. Usually compounds were tested for agonist and antagonist activity.
Test compounds were added to the assay plate and agonist activity was monitored as fluorescence for 80 seconds with a FLIPR (488 nm excitation; 510-570 nm emission; Molecular Devices). After 20-30 min. of incubation at 30° C., 20 nM MCP-1 (R&D; Roche) was added and fluorescence was monitored again for 80 seconds. Increases in intracellular calcium are reported as maximum fluorescence after agonist exposure minus basal fluorescence before exposure. Antagonist activity is indicated as inhibitor concentration required for 50% inhibition of specific calcium increases.

Going from C[C@H]1C(=O)N2C(CN1C(=O)Nc1ccc(Cl)c(Cl)c1)OC[C@@H]2CCC(=O)N1CCC2(CC2)[C@H](O)C1 (stereo partly drawn) [Example 23, (3S,6S)-3-[3-((S)-4-Hydroxy-6-aza-spiro[2.5]oct-6-yl)-3-oxo-propyl]-6-methyl-5-oxo-hexahydro-oxazolo[3,2-a]pyrazine-7-carboxylic acid (3,4-dichloro-phenyl)-amide] to C[C@H]1C(=O)N2[C@@H](CCC(=O)N3CCC4(CC4)[C@H](O)C3)CO[C@@H]2CN1C(=O)Nc1ccc(Cl)c(Cl)c1 [Example 35, (3S,6S,8aR)-3-[3-((S)-4-Hydroxy-6-aza-spiro[2.5]oct-6-yl)-3-oxo-propyl]-6-methyl-5-oxo-hexahydro-oxazolo[3,2-a]pyrazine-7-carboxylic acid (3,4-dichloro-phenyl)-amide], the IC50 falls from 14.4 nM to 5.7 nM (2.5-fold). The second is the more potent here.

Compared with C[C@H]1C(=O)N2[C@@H](CCC(=O)N3CCC4(CC4)[C@H](O)C3)CO[C@@H]2CN1C(=O)Nc1ccc(C(F)(F)F)c(Cl)c1 [Example 24, (3S,6S,8aR)-3-[3-((S)-4-Hydroxy-6-aza-spiro[2.5]oct-6-yl)-3-oxo-propyl]-6-methyl-5-oxo-hexahydro-oxazolo[3,2-a]pyrazine-7-carboxylic acid (3-chloro-4-trifluoromethyl-phenyl)-amide], C[C@H]1C(=O)N2[C@@H](CCC(=O)N3CCC4(CC4)[C@H](O)C3)CO[C@H]2CN1C(=O)Nc1ccc(C(F)(F)F)c(Cl)c1 [Example 25, (3S,6S,8aS)-3-[3-((S)-4-Hydroxy-6-aza-spiro[2.5]oct-6-yl)-3-oxo-propyl]-6-methyl-5-oxo-hexahydro-oxazolo[3,2-a]pyrazine-7-carboxylic acid (3-chloro-4-trifluoromethyl-phenyl)-amide] is 3.6-fold higher in IC50: 5.5 nM for the first, 20 nM for the second.

C[C@H]1C(=O)N2[C@@H](CCC(=O)N3CCC4(CC4)[C@H](O)C3)CO[C@@H]2CN1C(=O)/C=C/c1ccc(F)c(Cl)c1 [Example 26, (3S,6S,8aR)-7-[(E)-3-(3-Chloro-4-fluoro-phenyl)-acryloyl]-3-[3-((S)-4-hydroxy-6-aza-spiro[2.5]oct-6-yl)-3-oxo-propyl]-6-methyl-hexahydro-oxazolo[3,2-a]pyrazin-5-one] and C[C@H]1C(=O)N2[C@@H](CCC(=O)N3CCC4(CC4)[C@H](O)C3)CO[C@H]2CN1C(=O)/C=C/c1ccc(F)c(Cl)c1 [Example 27, (3S,6S,8aS)-7-[(E)-3-(3-Chloro-4-fluoro-phenyl)-acryloyl]-3-[3-((S)-4-hydroxy-6-aza-spiro[2.5]oct-6-yl)-3-oxo-propyl]-6-methyl-hexahydro-oxazolo[3,2-a]pyrazin-5-one] are within 1.5-fold of each other in IC50: 61.8 nM for the first, 49.4 nM for the second.

Compared with C[C@H]1C(=O)N2C(CN1C(=O)Nc1ccc(Cl)c(Cl)c1)OCCC[C@H]2CN1CCC2(CC2)[C@H](O)C1 (stereo partly drawn) [Example 28, (3S,5S)-5-((S)-4-Hydroxy-6-aza-spiro[2.5]oct-6-ylmethyl)-3-methyl-4-oxo-octahydro-9-oxa-2,4a-diaza-benzocycloheptene-2-carboxylic acid (3,4-dichloro-phenyl)-amide], C[C@H]1C(=O)N2C(CN1C(=O)Nc1ccc(Cl)c(Cl)c1)OCC[C@H]2CN1CCC2(CC2)[C@H](O)C1 (stereo partly drawn) [Example 30, (4S,7S)-4-((S)-4-Hydroxy-6-aza-spiro[2.5]oct-6-ylmethyl)-7-methyl-6-oxo-hexahydro-pyrazino[2,1-b][1,3]oxazine-8-carboxylic acid (3,4-dichloro-phenyl)-amide] is 2.5-fold lower in IC50: 3.7 nM for the first, 1.5 nM for the second. The second is the more potent here.

Compared with C[C@H]1C(=O)N2C(CN1C(=O)Nc1ccc(Cl)c(Cl)c1)OC[C@@H]2CC(=O)N1CCC2(CC2)[C@H](O)C1 (stereo partly drawn) [Example 29, (3S,6S)-3-[2-((S)-4-Hydroxy-6-aza-spiro[2.5]oct-6-yl)-2-oxo-ethyl]-6-methyl-5-oxo-hexahydro-oxazolo[3,2-a]pyrazine-7-carboxylic acid (3,4-dichloro-phenyl)-amide], C[C@H]1C(=O)N2[C@@H](CCC(=O)N3CCC4(CC4)[C@H](O)C3)CO[C@H]2CN1C(=O)Nc1ccc(Cl)c(Cl)c1 [Example 36, (3S,6S,8aS)-3-[3-((S)-4-Hydroxy-6-aza-spiro[2.5]oct-6-yl)-3-oxo-propyl]-6-methyl-5-oxo-hexahydro-oxazolo[3,2-a]pyrazine-7-carboxylic acid (3,4-dichloro-phenyl)-amide] is 83-fold lower in IC50: 774 nM for the first, 9.3 nM for the second. The second is the more potent here.

Going from C[C@H]1C(=O)N2[C@@H](CCN3CCC4(CC4)[C@H](O)C3)COC[C@H]2CN1C(=O)Nc1ccc(Cl)c(Cl)c1 [Example 31, (4S,7S,9aR)-4-[2-((S)-4-Hydroxy-6-aza-spiro[2.5]oct-6-yl)-ethyl]-7-methyl-6-oxo-hexahydro-pyrazino[2,1-c][1,4]oxazine-8-carboxylic acid (3,4-dichloro-phenyl)-amide] to C[C@H]1C(=O)N2[C@H](CCN3CCC4(CC4)[C@H](O)C3)COC[C@@H]2CN1C(=O)Nc1ccc(Cl)c(Cl)c1 [Example 40, (4R,7S,9aS)-4-[2-((S)-4-Hydroxy-6-aza-spiro[2.5]oct-6-yl)-ethyl]-7-methyl-6-oxo-hexahydro-pyrazino[2,1-c][1,4]oxazine-8-carboxylic acid (3,4-dichloro-phenyl)-amide], the IC50 rises from 1.9 nM to 340 nM (180-fold). The first is the more potent here.

Going from C[C@H]1C(=O)N2[C@@H](CCN3CCC4(CC4)[C@H](O)C3)COC[C@H]2CN1C(=O)Nc1ccc(C(F)(F)F)c(Cl)c1 [Example 32, (4S,7S,9aR)-4-[2-((S)-4-Hydroxy-6-aza-spiro[2.5]oct-6-yl)-ethyl]-7-methyl-6-oxo-hexahydro-pyrazino[2,1-c][1,4]oxazine-8-carboxylic acid (3-chloro-4-trifluoromethyl-phenyl)-amide] to C[C@H]1C(=O)N2[C@@H](CCC(=O)N3CCC4(CC4)[C@H](O)C3)CC[C@H]2CN1C(=O)Nc1ccc(C(F)(F)F)c(Cl)c1 [Example 43, (3S,6R,8aS)-6-[3-((S)-4-Hydroxy-6-aza-spiro[2.5]oct-6-yl)-3-oxo-propyl]-3-methyl-4-oxo-hexahydro-pyrrolo[1,2-a]pyrazine-2-carboxylic acid (3-chloro-4-trifluoromethyl-phenyl)-amide], the IC50 rises from 2.1 nM to 20.5 nM (9.8-fold). The first is the more potent here.

First: C[C@H]1C(=O)N2[C@@H](CCN3CCC4(CC4)[C@H](O)C3)CC[C@H]2CN1C(=O)Nc1ccc(Cl)c(Cl)c1 [Example 33, (3S,6R,8aS)-6-[2-((S)-4-Hydroxy-6-aza-spiro[2.5]oct-6-yl)-ethyl]-3-methyl-4-oxo-hexahydro-pyrrolo[1,2-a]pyrazine-2-carboxylic acid (3,4-dichloro-phenyl)-amide]
Second: C[C@H]1C(=O)N2[C@H](CCN3CCC4(CC4)[C@H](O)C3)CCC[C@@H]2CN1C(=O)Nc1ccc(Cl)c(Cl)c1 [Example 39, (3S,6S,9aR)-6-[2-((S)-4-Hydroxy-6-aza-spiro[2.5]oct-6-yl)-ethyl]-3-methyl-4-oxo-octahydro-pyrido[1,2-a]pyrazine-2-carboxylic acid (3,4-dichloro-phenyl)-amide]
The IC50 of the first is 50-fold lower: 2.7 nM for the first, 135 nM for the second.

Compared with C[C@H]1C(=O)N2[C@@H](CCC(=O)N3CCC4(CC4)[C@H](O)C3)COC2(C)CN1C(=O)Nc1ccc(C(F)(F)F)c(Cl)c1 (stereo partly drawn) [Example 37, (3S,6S)-3-[3-((S)-4-Hydroxy-6-aza-spiro[2.5]oct-6-yl)-3-oxo-propyl]-6,8a-dimethyl-5-oxo-hexahydro-oxazolo[3,2-a]pyrazine-7-carboxylic acid (3-chloro-4-trifluoromethyl-phenyl)-amide], C[C@H]1C(=O)N2[C@@H](CCC(=O)N3CCC4(CC4)[C@H](O)C3)CC[C@H]2CN1C(=O)Nc1ccc(Cl)c(Cl)c1 [Example 42, (3S,6R,8aS)-6-[3-((S)-4-Hydroxy-6-aza-spiro[2.5]oct-6-yl)-3-oxo-propyl]-3-methyl-4-oxo-hexahydro-pyrrolo[1,2-a]pyrazine-2-carboxylic acid (3,4-dichloro-phenyl)-amide] is 8.9-fold lower in IC50: 360 nM for the first, 40.4 nM for the second.

First: C[C@H]1C(=O)N2[C@@H](CCCN3CCC4(CC4)[C@H](O)C3)CC[C@H]2CN1C(=O)Nc1ccc(Cl)c(Cl)c1 [Example 41, (3S,6S,8aS)-6-[3-((S)-4-Hydroxy-6-aza-spiro[2.5]oct-6-yl)-propyl]-3-methyl-4-oxo-hexahydro-pyrrolo[1,2-a]pyrazine-2-carboxylic acid (3,4-dichloro-phenyl)-amide]
Second: C[C@H]1C(=O)N2[C@@H](CCCN3CC(F)(F)C(F)(F)C3)CC[C@H]2CN1C(=O)Nc1ccc(Cl)c(Cl)c1 [Example 44, (3S,6S,8aS)-3-Methyl-4-oxo-6-[3-(3,3,4,4-tetrafluoro-pyrrolidin-1-yl)-propyl]-hexahydro-pyrrolo[1,2-a]pyrazine-2-carboxylic acid (3,4-dichloro-phenyl)-amide]
The IC50 of the first is 140-fold lower: 3.3 nM for the first, 473 nM for the second. The first is the more potent here.
